Source: ChEMBL document CHEMBL2434953, “Safe and easy route for the synthesis of 1,3-dimethyl-1,2,3-triazolium salt and investigation of its anticancer activities” (2013)

Experiments:
Type in all cases: functional
U-251 = test: Growth inhibition of human U251 cells after 48 hrs by sulforhodamine B assay; conditions: U-251, 48 h
SNB-19 = test: Growth inhibition of human SNB19 cells after 48 hrs by sulforhodamine B assay; conditions: SNB-19, 48 h
SNB-75 = test: Growth inhibition of human SNB75 cells after 48 hrs by sulforhodamine B assay; conditions: SNB-75, 48 h
SF-539 = test: Growth inhibition of human SF539 cells after 48 hrs by sulforhodamine B assay; conditions: SF-539, 48 h
SF-295 = test: Growth inhibition of human SF295 cells after 48 hrs by sulforhodamine B assay; conditions: SF-295, 48 h
SF-268 = test: Growth inhibition of human SF268 cells after 48 hrs by sulforhodamine B assay; conditions: SF-268, 48 h
NCI-H522 = test: Growth inhibition of human NCI-H522 cells after 48 hrs by sulforhodamine B assay; conditions: NCI-H522, 48 h
NCI-H460 = test: Growth inhibition of human NCI-H460 cells after 48 hrs by sulforhodamine B assay; conditions: NCI-H460, 48 h
NCI-H322M = test: Growth inhibition of human NCI-H322M cells after 48 hrs by sulforhodamine B assay
NCI-H23 = test: Growth inhibition of human NCI-H23 cells after 48 hrs by sulforhodamine B assay; conditions: NCI-H23, 48 h
NCI-H226 = test: Growth inhibition of human NCI-H226 cells after 48 hrs by sulforhodamine B assay; conditions: NCI-H226, 48 h
HOP-62 = test: Growth inhibition of human HOP62 cells after 48 hrs by sulforhodamine B assay; conditions: HOP-62, 48 h
[1] = Growth inhibition of human EKVX cells after 48 hrs by sulforhodamine B assay
A549 = test: Growth inhibition of human A549 cells after 48 hrs by sulforhodamine B assay; conditions: A549, 48 h
SW-620 = test: Growth inhibition of human SW620 cells after 48 hrs by sulforhodamine B assay; conditions: SW-620, 48 h
KM12 = test: Growth inhibition of human KM12 cells after 48 hrs by sulforhodamine B assay; conditions: KM12, 48 h
HCT-116 = test: Growth inhibition of human HCT116 cells after 48 hrs by sulforhodamine B assay; conditions: HCT-116, 48 h
HCT-15 = test: Growth inhibition of human HCT15 cells after 48 hrs by sulforhodamine B assay; conditions: HCT-15, 48 h
HT-29 = test: Growth inhibition of human HT-29 cells after 48 hrs by sulforhodamine B assay; conditions: HT-29, 48 h
COLO 205 = test: Growth inhibition of human COLO205 cells after 48 hrs by sulforhodamine B assay; conditions: COLO 205, 48 h
[2] = Growth inhibition of human HCC2998 cells after 48 hrs by sulforhodamine B assay; conditions: HCC 2998, 48 h
UACC-257 = test: Growth inhibition of human UACC257 cells after 48 hrs by sulforhodamine B assay; conditions: UACC-257, 48 h
SK-MEL-5 = test: Growth inhibition of human SK-MEL-5 cells after 48 hrs by sulforhodamine B assay; conditions: SK-MEL-5, 48 h
SK-MEL-28 = test: Growth inhibition of human SK-MEL-28 cells after 48 hrs by sulforhodamine B assay; conditions: SK-MEL-28, 48 h
MDA-MB-435 = test: Growth inhibition of human MDA-MB-435 cells after 48 hrs by sulforhodamine B assay; conditions: MDA-MB-435, 48 h
SK-MEL-2 = test: Growth inhibition of human SK-MEL-2 cells after 48 hrs by sulforhodamine B assay; conditions: SK-MEL-2, 48 h
M14 = test: Growth inhibition of human M14 cells after 48 hrs by sulforhodamine B assay; conditions: M14, 48 h
Malme-3M = test: Growth inhibition of human MALME-3M cells after 48 hrs by sulforhodamine B assay
LOX IMVI = test: Growth inhibition of human LOXIMVI cells after 48 hrs by sulforhodamine B assay

Q: Which GI50 (U-251) does the source give for Cn1n[n+](C)c2c1C(=O)c1ccccc1C2=O here?
A: The GI50 was 1.27 µM.

Q: And the GI50 (SNB-19)?
A: The GI50 was 1.59 µM.

Q: What about the GI50 (SNB-75) of the same molecule?
A: Its GI50 is 1.68 µM.

Q: And the GI50 (SF-539)?
A: The GI50 was 1.35 µM.

Q: What about the GI50 (SF-295) of the same molecule?
A: Its GI50 is 1.05 µM.

Q: What about the GI50 (SF-268) of the same molecule?
A: The GI50 was 0.95 µM.

Q: And the GI50 (NCI-H522)?
A: Its GI50 is 1.41 µM.

Q: What about the GI50 (NCI-H460) of the same molecule?
A: Its GI50 is 0.3 µM.

Q: What about the GI50 (NCI-H322M) of the same molecule?
A: Its GI50 is 0.28 µM.

Q: And the GI50 (NCI-H23)?
A: The GI50 was 0.62 µM.

Q: What about the GI50 (NCI-H226) of the same molecule?
A: The GI50 was 0.51 µM.

Q: And the GI50 (HOP-62)?
A: Its GI50 is 1.54 µM.

Q: What about the GI50 [1] of the same molecule?
A: Its GI50 is 1.21 µM.

Q: And the GI50 (A549)?
A: The GI50 was 0.32 µM.

Q: What about the GI50 (SW-620) of the same molecule?
A: Its GI50 is 1.15 µM.

Q: What about the GI50 (KM12) of the same molecule?
A: The GI50 was 0.79 µM.

Q: And the GI50 (HCT-116)?
A: The GI50 was 0.68 µM.

Q: And the GI50 (HCT-15)?
A: The GI50 was 1.61 µM.

Q: What about the GI50 (HT-29) of the same molecule?
A: Its GI50 is 1.14 µM.

Q: What about the GI50 (COLO 205) of the same molecule?
A: Its GI50 is 1.01 µM.

Q: What about the GI50 [2] of the same molecule?
A: Its GI50 is 1.24 µM.

Q: And the GI50 (UACC-257)?
A: The GI50 was 1.79 µM.

Q: And the GI50 (SK-MEL-5)?
A: The GI50 was 0.38 µM.

Q: What about the GI50 (SK-MEL-28) of the same molecule?
A: The GI50 was 1.61 µM.

Q: And the GI50 (MDA-MB-435)?
A: The GI50 was 0.2 µM.

Q: And the GI50 (SK-MEL-2)?
A: Its GI50 is 1.57 µM.

Q: And the GI50 (M14)?
A: The GI50 was 0.68 µM.

Q: What about the GI50 (Malme-3M) of the same molecule?
A: The GI50 was 0.15 µM.

Q: What about the GI50 (LOX IMVI) of the same molecule?
A: Its GI50 is 0.5 µM.
